“And” between values parts separate entries of the source, which are not always exact repeats. Equal values may be shown once.
Tests used:
Conditions in all cases: mouse, in vivo
B. anthracis = tested on: B. anthracis; parameters: species or system mouse (Balb/c)
E. coli strain TVDL-rat = tested on: E. coli strain TVDL-rat; parameters: species or system mice
B. anthracis spores = tested on: B. anthracis spores; parameters: species or system mouse (Balb/c)

In the case of “poly-(1,6)-β-D-glucopyranosyl (1,3)β-D-glucopyranose [PGG]”, the bacteria-free animals (B. anthracis) was 86.4%, the “bacterial load in lung of surviving animals” value (B. anthracis) was 2.6×10^5 CFU/g lung and the survival rate (E. coli strain TVDL-rat) was 90% and 75% and 70%. For the same substance, the mean survival time (B. anthracis spores) was 10.2 days and 11.5 days, the “number of survivors out of 22 mice” value (B. anthracis spores) was 19 and the percent survivors (B. anthracis spores) was 86.36%. The “survival, data pooled from the two experiments” value (B. anthracis spores) was 10.86 days.

From patent publication US8865679B2 (priority 2001, dated 2014)
